Test results as given in publication PMC11052913, “Determination of Regorafenib monohydrate (colorectal anticancer drug) solubility in supercritical CO2: Experimental and thermodynamic modeling” (Heliyon, 2024).
Structures can show the parent of a compound that is named as a salt. Where two headings read alike, the source gives them in different places. Marks after values point to notes of the source that are not given here.

Experiments:
[1] = cited from earlier work
[2] = Solubility of REG in supercritical CO2, static isobaric-isothermal method with UV-Vis quantification; type: physicochemical
Method: The solubility of REG in ScCO2 was measured using a pilot-scale apparatus, as depicted in Fig. 1. […] An F-1 CO2 cylinder, an F-2 needle valve, an F-3 molecular sieve filter, an F-4 refrigeration unit, an F-5 high-pressure pump, an F-6 air compressor, an F-7 oven, an F-8 magnetic stirrer, an F-9 high-pressure equilibrium cell, an F-10 3-position valve, and an F-16 back-pressure valve were all part of the apparatus.
In each experimental trial, a consistent amount of 1 g of the REG drug was administered into the immobile cell, which was subsequently positioned inside a thermal chamber. The aforementioned measure was enacted with the purpose of ensuring that the temperature remains within a narrow range of ±0.1 K from the designated experimental point. At both cell ends, stainless-steel sintered filters were added to limit undissolved REG. After that, high-pressure CO2 was poured into the cell and allowed to sit for 70 min in order to obtain saturation. Based on earlier studies, we know that 60 min is sufficient to achieve balance. The isobaric-isothermal category includes this kind of measurement. Throughout the experiment, the target temperatures and pressure levels were kept within ±0.1 K and ±0.1 MPa, respectively, for every data point. Following the triplicate execution of the experiments, the average solubility values were computed.
After reaching equilibrium, we used a 2-position 6-way port valve to collect 600 μL of saturated ScCO2 samples. The materials were thereafter transferred into a vial that was pre-filled with dimethyl sulfoxide (DMSO). The flow rate was managed by means of a micrometer valve. Each experiment was finished with the flow line being purified with 1 mL of DMSO after 5 mL of the solution had been collected. Using a UNICO-4802 UV–Vis spectrophotometer set to a peak wavelength (λmax) of 275 nm, we examined the absorbance of REG in DMSO for solubility assessment. The solubility of REG in ScCO2 was determined according to a given equation. The amount of REG dissolved in ScCO2, denoted as (y2), was measured in terms of mole fraction. […] The quantification of the dissolved substance was accomplished through the measurement of UV absorbance. The calculation of the moles of REG (nREG) and CO2 (n1) in the loop was performed as follows:(1) nREG=CREG(g/L).VREG(L)/MREG(g/mol) (2) n1=V1(L).ρ1(g/L)/M1(g/mol)
The concentration of REG (g/L) in the collection vial is denoted as CREG. The sampling loop and the collection vial are represented by V1 (L) and VREG (L), respectively. The symbols M1 and MREG represent the molar masses of carbon dioxide (CO2) and a substance denoted as REG, respectively. The method out-lined in references was employed to determine the equilibrium mole fraction of REG, denoted as y2, in supercritical CO2 under varying temperatures and pressures.(3) y2=nREG/n1+nREG
The following equation was applied to determine the solubility of REG, S (in g/L), in the supercritical CO2(4) S=CREG(g/L).VREG(L)/V1(L)
Eq. (4) can be reformulated as below:(5) S=ρMREG/M1y2/(1−y2) In fact, Eq. (5) is another form of Eq. (4).

[3] = Total, vaporization and solvation enthalpies of the REG-ScCO2 system estimated from Chrastil, Kumar-Johnston and Bartle et al. model constants; type: physicochemical
Source text: In Fig. 3, the self-consistency test of experimental REG solubility data employed the models Chrastil, Kumar-Johnston, Bartle et al., and Mendez-Teja. […] In other words, wherein all data points at different isotherms falls onto a single straight line, indicating the self-consistency test for the solubility of REG in ScCO2 at different temperatures.
Analogous techniques were applied for Galantamine, Clonazepam, Lansoprazole, and Esomeprazole. Finally, the total (ΔHtot-=-41.16 kJ/mol), vaporization (ΔHvap-=-60.04 kJ/mol), and solvation (ΔHsol-=-18.88 kJ/mol) enthalpies for the REG-ScCO2 binary system were estimated as part of this work. More detail of enthalpies of the REG can be seen in Table 4.

[4] = parameters: method as in PMID 28214672, doi:10.1016/j.jddst.2019.101462; details: pH 6.5 and 22–23 °C; cited from earlier work

In the case of `COc1cc2nc(N3CCN(C(=O)c4ccco4)CC3)nc(N)c2cc1OC` [Prazosin Hydrochloride], the “Mole fraction solubility in ScCO2” value ([1]; N 24, T 328-338 K, P 12-27 MPa, ref [12] of supplement) is given as 1.5-72 (×10^6) mole fraction.

For `O=C(O)c1ccccc1Nc1cccc(Cl)c1Cl` [Clofenamic acid], the “Mole fraction solubility in ScCO2” value ([1]; N 24, T 313-333 K, P 12-36 MPa, ref [9] of supplement) is given as 1.54-35.44 (×10^6) mole fraction.

For `Cc1nc(Nc2ncc(C(=O)Nc3c(C)cccc3Cl)s2)cc(N2CCN(CCO)CC2)n1` [Dasatinib monohydrate], the “Mole fraction solubility in ScCO2” value ([1]; N 24, T 328-338 K, P 12-27 MPa, ref [11] of supplement) is listed as 0.45 - 9.08 (×10^6) mole fraction.

For `Cc1ccc(C(=O)O)cc1` [4-Methylbenzoic acid], the “Mole fraction solubility in ScCO2” value ([1]; N 18, T 313-333 K, P 11-24.6 MPa, ref [3] of supplement) is listed as 43-702 (×10^6) mole fraction.

For `Nc1nnc(-c2cccc(Cl)c2Cl)c(N)n1` [Lamotrigine], the “Mole fraction solubility in ScCO2” value ([1]; N 36, T 318-338 K, P 12.16-35.46 MPa, ref [8] of supplement) is listed as 0.3-5.9 (×10^6) mole fraction.

For `CC(C)(Oc1ccc(Cl)cc1)C(=O)O` [Clofibric acid], the “Mole fraction solubility in ScCO2” value ([1]; N 21, T 308-328 K, P 10.01-22.02 MPa, clofibric acid, ref [7] of supplement) is given as 32.1-856 (×10^6) mole fraction.

For `CS(=O)(=O)OCCCCOS(C)(=O)=O` [Busulfan], the “Mole fraction solubility in ScCO2” value ([1]; N 32, T 308-328 K, P 12-40 MPa, ref [5] of supplement) is given as 32.7-865 (×10^6) mole fraction.

In the case of `Cc1ccc(C)c(OCCCC(C)(C)C(=O)O)c1` [Gemfibrozil], the “Mole fraction solubility in ScCO2” value ([1]; N 21, T 308-328 K, P 10.01-22.02 MPa, gemfibrozil, ref [7] of supplement) is listed as 29.4-4190 (×10^6) mole fraction.

In the case of `CC(=O)N(c1ccccc1)c1ccc(C)cc1` [4-Methyl-N-phenylacetanilide], the “Mole fraction solubility in ScCO2” value ([1]; N 21, T 308-328 K, P 12.16-22.5 MPa, ref [2] of supplement) is listed as 38.4-480.2 (×10^6) mole fraction.

`CNC(=O)c1cc(Oc2ccc(NC(=O)Nc3ccc(Cl)c(C(F)(F)F)c3)c(F)c2)ccn1` [Regorafenib monohydrate, 4-(4-(3-(4-chloro-3-(trifluoromethyl)phenyl)ureido)-3-fluorophenoxy)-N-methylpicolinamide] showed a S (equilibrium solubility) in ScCO2 ([2]; 308 K, 120 bar, CO2 density 769 kg/m^3) of 10.6 µg/mL, a S (equilibrium solubility) in ScCO2 ([2]; 308 K, 150 bar, CO2 density 817 kg/m^3) of 15.5 µg/mL and a S (equilibrium solubility) in ScCO2 ([2]; 308 K, 180 bar, CO2 density 849 kg/m^3) of 18 µg/mL. It also gave a S (equilibrium solubility) in ScCO2 ([2]; 308 K, 210 bar, CO2 density 875 kg/m^3) of 22.6 µg/mL, a S (equilibrium solubility) in ScCO2 ([2]; 308 K, 240 bar, CO2 density 896 kg/m^3) of 29.2 µg/mL and a S (equilibrium solubility) in ScCO2 ([2]; 308 K, 270 bar, CO2 density 914 kg/m^3) of 31.5 µg/mL. It also gave a S (equilibrium solubility) in ScCO2 ([2]; 318 K, 120 bar, CO2 density 661 kg/m^3) of 7.2 µg/mL, a S (equilibrium solubility) in ScCO2 ([2]; 318 K, 150 bar, CO2 density 744 kg/m^3) of 9.8 µg/mL and a S (equilibrium solubility) in ScCO2 ([2]; 318 K, 180 bar, CO2 density 791 kg/m^3) of 12.4 µg/mL. For the same molecule, the S (equilibrium solubility) in ScCO2 ([2]; 318 K, 210 bar, CO2 density 824 kg/m^3) was 28.7 µg/mL, the S (equilibrium solubility) in ScCO2 ([2]; 318 K, 240 bar, CO2 density 851 kg/m^3) was 31.9 µg/mL and the S (equilibrium solubility) in ScCO2 ([2]; 318 K, 270 bar, CO2 density 872 kg/m^3) was 37.2 µg/mL. The S (equilibrium solubility) in ScCO2 ([2]; 328 K, 120 bar, CO2 density 509 kg/m^3) was 3.6 µg/mL, the S (equilibrium solubility) in ScCO2 ([2]; 328 K, 150 bar, CO2 density 656 kg/m^3) was 7 µg/mL and the S (equilibrium solubility) in ScCO2 ([2]; 328 K, 180 bar, CO2 density 725 kg/m^3) was 10 µg/mL. The S (equilibrium solubility) in ScCO2 ([2]; 328 K, 210 bar, CO2 density 769 kg/m^3) was 33.1 µg/mL, the S (equilibrium solubility) in ScCO2 ([2]; 328 K, 240 bar, CO2 density 802 kg/m^3) was 37.1 µg/mL and the S (equilibrium solubility) in ScCO2 ([2]; 328 K, 270 bar, CO2 density 829 kg/m^3) was 39.2 µg/mL. The S (equilibrium solubility) in ScCO2 ([2]; 338 K, 120 bar, CO2 density 388 kg/m^3) was 1.3 µg/mL, the S (equilibrium solubility) in ScCO2 ([2]; 338 K, 150 bar, CO2 density 557 kg/m^3) was 3.7 µg/mL and the S (equilibrium solubility) in ScCO2 ([2]; 338 K, 180 bar, CO2 density 652 kg/m^3) was 7.2 µg/mL. It also gave a S (equilibrium solubility) in ScCO2 ([2]; 338 K, 210 bar, CO2 density 710 kg/m^3) of 34.6 µg/mL, a S (equilibrium solubility) in ScCO2 ([2]; 338 K, 240 bar, CO2 density 751 kg/m^3) of 41 µg/mL and a S (equilibrium solubility) in ScCO2 ([2]; 338 K, 270 bar, CO2 density 783 kg/m^3) of 55.3 µg/mL. For the same molecule, the “crossover pressure of the solubility isotherms in ScCO2” value ([2]; isotherms 308–338 K) was 18–21 MPa, the “maximum equilibrium mole fraction in ScCO2” value ([2]; over 308–338 K and 120–270 bar, maximum at 338 K and 27 MPa, listed as REG) was 6.44×10^−6 mole fraction and the “minimum equilibrium mole fraction in ScCO2” value ([2]; over 308–338 K and 120–270 bar, minimum at 338 K, listed as REG) was 3.06×10^−7 mole fraction. The “vaporization enthalpy ΔHvap” value ([3]; based on Bartle et al. model) was 14.35 kcal/mol, the ΔHtot ([3]; based on Kumar-Johnston model) was 9.833 kcal/mol and the ΔHtot ([3]; based on the Chrastil model) was 9.84 kcal/mol. The solubility in water [4] was 0.12 µg/mL.

For `O=C1CN=C(c2ccccc2Cl)c2cc([N+](=O)[O-])ccc2N1` [Clonazepam], the “Mole fraction solubility in ScCO2” value ([1]; N 28, T 308-338 K, P 12-30 MPa, ref [1] of supplement) is given as 3.9-72.6 (×10^6) mole fraction.
